Patent US20240208940A1, “SMALL-MOLECULE INHIBITORS FOR BETA-CATENIN/BCELL LYMPHOMA 9 PROTEIN-PROTEIN INTERACTION” (H. LEE MOFFITT CANCER CENTER AND RESEARCH INSTITUTE, INC., priority 2021, published 2024)
Where a name gives a salt, the structure may show the parent alone.

Molecular target: β-catenin/BCL9 PPI (Homo sapiens (Human), UniProt P35222)
Assay: AlphaScreen competitive inhibition assay of β-catenin/BCL9 PPI
Format: binding
Conditions: mean ± standard deviation (n = 3); for Ki: derived from IC50, read-out: Ki ± SD
Protocol: AlphaScreen Assays of β-Catenin and BCL9 Interaction. Experiments were performed in white opaque 384-well plates from PerkinElmer (Waltham, MA), and the samples were read on a Biotek Synergy 2 plate reader (Winooski, VT) with excitation at 680 nm and emission at 570 nm. The standard AlphaScreen protocol was used with a sensitivity setting of 200. All dilutions were made in 1× assay buffer containing 25 mM Hepes (pH 7.4), 100 mM NaCl, 0.01% Triton X-100 and 0.1% BSA to minimize nonspecific interactions. For the competitive inhibition assays of β-catenin/BCL9 PPI, the negative control (equivalent to 0% inhibition) refers to 5.0 nM biotinylated BCL9, 50 nM His6-tagged β-catenin, and 10 μg/mL donor and acceptor beads in a final volume of 25 μL assay buffer, but no tested inhibitor present. The positive control (equivalent to 100% inhibition) refers to 5.0 nM biotinylated BCL9 and 10 μg/mL donor and acceptor beads in a final volume of 25 μL assay buffer.
For the β-catenin/BCL9 assay, 5 nM biotinylated BCL9 and 50 nM His6-tagged β-catenin were incubated in assay buffer for 30 min. Different concentrations of the tested inhibitor were added and incubated in 20 μL assay buffer for another 1 h. All of the assay plates were covered and gently mixed on an orbital shaker. The donor and acceptor beads were then added to the plates to a final concentration of 10 μg/mL in 25 μL assay buffer. The mixture was incubated for 1 h before detection. The IC50 value was determined by nonlinear least-square analysis of GraphPad Prism 8.0. The Ki values were derived from the IC50 values using a method reported by Wang and coworkers.^65 The equation used is Ki=[I]50/([L]50/Kd+[P]0/Kd+1) (Where [I]50 denotes the concentration of the free inhibitor at 50% inhibition, [L]50 is the concentration of the free labeled ligand at 50% inhibition, [P]0 is the concentration of the free protein at 0% inhibition, and Kd is the dissociation constant of the protein-ligand complex). All of the experiments were performed in triplicate and carried out in the presence of 1% DMSO for small-molecule inhibitors. Each compound was assayed at least by three independent experiments. The results were expressed as mean±standard deviation.

Sequence of β-catenin/BCL9 PPI (P35222 whole entry): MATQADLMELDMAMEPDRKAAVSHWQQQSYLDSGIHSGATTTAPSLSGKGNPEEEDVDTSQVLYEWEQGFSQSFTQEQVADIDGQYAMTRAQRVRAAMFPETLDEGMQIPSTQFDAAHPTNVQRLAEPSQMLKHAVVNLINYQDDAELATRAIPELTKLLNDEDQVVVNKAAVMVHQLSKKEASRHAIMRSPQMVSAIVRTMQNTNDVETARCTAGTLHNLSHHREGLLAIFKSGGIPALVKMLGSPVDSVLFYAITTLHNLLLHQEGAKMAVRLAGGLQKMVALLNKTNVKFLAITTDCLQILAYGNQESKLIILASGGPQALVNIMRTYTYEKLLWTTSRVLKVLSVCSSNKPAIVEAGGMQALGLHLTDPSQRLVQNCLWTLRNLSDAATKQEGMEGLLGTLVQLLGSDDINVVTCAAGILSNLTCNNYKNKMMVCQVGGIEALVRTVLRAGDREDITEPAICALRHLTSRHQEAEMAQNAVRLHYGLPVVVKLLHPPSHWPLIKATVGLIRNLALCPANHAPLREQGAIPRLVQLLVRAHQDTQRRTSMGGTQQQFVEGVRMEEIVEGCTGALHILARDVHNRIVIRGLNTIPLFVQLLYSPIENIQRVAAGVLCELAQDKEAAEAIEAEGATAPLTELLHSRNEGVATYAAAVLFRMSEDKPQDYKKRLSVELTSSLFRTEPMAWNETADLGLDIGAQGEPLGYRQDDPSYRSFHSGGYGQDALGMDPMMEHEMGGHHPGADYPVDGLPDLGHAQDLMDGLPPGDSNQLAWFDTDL

Row | Compound | Ki | IC50
1 | O=C(c1ccc(O[C@H]2CCNC2)c(C2CCN(C(=O)C3CC3)CC2)c1)N1CCC(Oc2cc(F)cc(N3CCNCC3)c2)CC1 [Compound 21, (S)-(3-(1-(cyclopropanecarbonyl)piperidin-4-yl)-4-(pyrrolidin-3-yloxy)phenyl)(4-(3-fluoro-5-(piperazin-1-yl)phenoxy)piperidin-1-yl)methanone dihydrochloride] | ≤ 50 µM | ≤ 50 µM
2 | COC(=O)c1ccc(N2CCNCC2)cc1OC1CCN(C(=O)c2ccc(O[C@H]3CCNC3)c(C3CCC(C(C)(C)C)CC3)c2)CC1 (stereo in doubt) [Compound 39, cis- and trans-methyl (S)-2-((1-(3-(4-(tert-butyl)cyclohexyl)-4-(pyrrolidin-3-yloxy)benzoyl)piperidin-4-yl)oxy)-4-(piperazin-1-yl)benzoate dihydrochloride] | 14 ± 0.87 µM | 17 ± 1.1 µM
3 | O=C(c1ccc(OC2CCNCC2)c(C2CCCCC2)c1)N1CCC(Oc2cc(F)cc(N3CCNCC3)c2)CC1 [Compound 6, (3-cyclohexyl-4-(piperidin-4-yloxy)phenyl)(4-(3-fluoro-5-(piperazin-1-yl)phenoxy)piperidin-1-yl)methanone ditrifluoroacetic acid] | > 84 µM | > 100 µM
4 | CC(C)(C)C1CCN(c2cc(C(=O)N3CCC(Oc4cc(F)cc(N5CCNCC5)c4)CC3)ccc2O[C@H]2CCNC2)CC1 [Compound 27, (S)-(3-(4-(tert-butyl)piperidin-1-yl)-4-(pyrrolidin-3-yloxy)phenyl)(4-(3-fluoro-5-(piperazin-1-yl)phenoxy)piperidin-1-yl)methanone dihydrochloride] | ≤ 30 µM | ≤ 30 µM
5 | O=C(c1ccc(O[C@H]2CCNC2)c(C2CCCCC2)c1)N1CCC(Oc2cc(F)cc(N3CCC4(CC3)CNC4)c2)CC1 [Compound 3, (S)-(3-cyclohexyl-4-(pyrrolidin-3-yloxy)phenyl)(4-(3-fluoro-5-(2,7-diazaspiro[3.5]nonan-7-yl)phenoxy)piperidin-1-yl)methanone ditrifluoroacetic acid] | > 84 µM | > 100 µM
6 | O=C(c1ccc(O[C@H]2CCNC2)c(C2CCOCC2)c1)N1CCC(Oc2cc(F)cc(N3CCNCC3)c2)CC1 [Compound 20, (S)-(4-(3-fluoro-5-(piperazin-1-yl)phenoxy)piperidin-1-yl)(4-(pyrrolidin-3-yloxy)-3-(tetrahydro-2H-pyran-4-yl)phenyl)methanone dihydrochloride] | ~84 µM | ~100 µM
7 | CC1(O)CCN(c2cc(C(=O)N3CCC(Oc4cc(F)cc(N5CCNCC5)c4)CC3)ccc2O[C@H]2CCNC2)CC1 [Compound 28] | ≤ 20 µM | ≤ 20 µM
8 | O=C(c1ccc(O[C@H]2CCNC2)c(-c2ccc3ccsc3c2)c1)N1CCC(Oc2cc(F)cc(N3CCNCC3)c2)CC1 [Compound 11, (S)-(3-(benzo[b]thiophen-6-yl)-4-(pyrrolidin-3-yloxy)phenyl)(4-(3-fluoro-5-(piperazin-1-yl)phenoxy)piperidin-1-yl)methanone dihydrochloride] | ≤ 5 µM | ≤ 5 µM
9 | O=C(c1ccc(O[C@@H]2CCNC2)c(C2CCCCC2)c1)N1CCC(Oc2cc(F)cc(N3CCNCC3)c2)CC1 [Compound 7, (R)-(3-cyclohexyl-4-(pyrrolidin-3-yloxy)phenyl)(4-(3-fluoro-5-(piperazin-1-yl)phenoxy)piperidin-1-yl)methanone dihydrochloride] | ≤ 60 µM | ≤ 70 µM
10 | O=C(c1ccc(O[C@H]2CCNC2)c(C2CCC(C(F)(F)F)CC2)c1)N1CCC(Oc2cc(F)cc(N3CCNCC3)c2)CC1 (stereo in doubt) [Compound 18, cis- and trans-(S)-(4-(3-fluoro-5-(piperazin-1-yl)phenoxy)piperidin-1-yl)(4-(pyrrolidin-3-yloxy)-3-(4-(trifluoromethyl)cyclohexyl)phenyl)methanone dihydrochloride] | ≤ 20 µM | ≤ 20 µM
